According to ChEMBL document CHEMBL3856215, “Design and synthesis of N-(5-chloro-2,4-dihydroxybenzoyl)-(R)-1,2,3,4-tetrahydroisoquinoline-3-carboxamides as novel Hsp90 inhibitors” (Eur J Med Chem, 2016):
Calls of active or inactive are those of the source. No cut-off for these calls is given here.

What was measured:
[1] = Antiproliferative activity against human HeLa cells after 72 hrs by SRB assay; format: functional, cell-based
[2] = Antiproliferative activity against human MDA-MB-231 cells after 72 hrs by SRB assay; format: functional, cell-based; conditions: MDA-MB-231, 72 h
[3] = target: T1, Heat shock protein HSP90 (Homo sapiens) (UniProt P07900+P08238); assay: Inhibition of Hsp90 in human MDA-MB-231 cells assessed as downregulation of C-raf expression after 24 hrs by Western blot analysis; format: cell-based
[4] = target: Heat shock protein HSP 90-alpha (Homo sapiens) (UniProt P07900); assay: Induction of thermal stabilization of Hsp90alpha in human 293T cells preincubated for 3 hrs followed by […] at 55 degC and subsequently […] at room temperature by Western blot method; format: cell-based
[5] = target: T1, Heat shock protein HSP90 (Homo sapiens); assay: Inhibition of Hsp90 in human MDA-MB-231 cells assessed as downregulation of Her2 expression after 24 hrs by Western blot analysis; format: cell-based
[6] = target: Heat shock protein HSP 90-alpha (Homo sapiens) (UniProt P07900); assay: Induction of thermal stabilization of Hsp90alpha in human 293T cells at 10 uM preincubated for 3 hrs followed by […] at 37 to 61 degC and subsequently […] at room temperature by Western blot method; format: cell-based
[7] = target: T1, Heat shock protein HSP90 (Homo sapiens); assay: Inhibition of Hsp90 in human MDA-MB-231 cells assessed as upregulation of Hsp70 expression after 24 hrs by Western blot analysis; format: cell-based
[8] = target: T1, Heat shock protein HSP90 (Homo sapiens); assay: Inhibition of Hsp90 in human MDA-MB-231 cells assessed as downregulation of Cdc-2 expression after 24 hrs by Western blot analysis; format: cell-based
[9] = target: T1, Heat shock protein HSP90 (Homo sapiens); assay: Inhibition of Hsp90 in human MDA-MB-231 cells assessed as downregulation of CDK4 expression after 24 hrs by Western blot analysis; format: cell-based

SMILES	IC50 [1] [µM]	IC50 [2] [µM]	also measured
CC(C)NC(=O)[C@@H]1Cc2ccccc2CN1C(=O)c1cc(Cl)c(O)cc1O	7.12	5.81	–
C=CCNC(=O)[C@@H]1Cc2ccccc2CN1C(=O)c1cc(Cl)c(O)cc1O	7	6.74	–
CCCNC(=O)[C@@H]1Cc2ccccc2CN1C(=O)c1cc(Cl)c(O)cc1O	7.5	5.34	–
CCNC(=O)[C@@H]1Cc2ccccc2CN1C(=O)c1cc(Cl)c(O)cc1O	5.18	3.88	–
O=C(NC1CCCCC1)[C@H]1Cc2ccccc2CN1C(=O)c1cc(Cl)c(O)cc1O	3.55	2.05	–
O=C([C@@H]1Cc2ccccc2CN1C(=O)c1cc(Cl)c(O)cc1O)N1CCCCC1	8.88	9.64	–
C=CCNC(=O)[C@H]1Cc2ccccc2CN1C(=O)c1cc(Cl)c(O)cc1O	3.07	2.15	–
O=C(NC1CCCC1)[C@H]1Cc2ccccc2CN1C(=O)c1cc(Cl)c(O)cc1O	5.42	3.51	–
CCCNC(=O)[C@H]1Cc2ccccc2CN1C(=O)c1cc(Cl)c(O)cc1O	3.98	2.58	–
CCNC(=O)[C@H]1Cc2ccccc2CN1C(=O)c1cc(Cl)c(O)cc1O	4.57	4.62	–
CCN(CC)C(=O)[C@H]1Cc2ccccc2CN1C(=O)c1cc(Cl)c(O)cc1O	4.91	2.24	–
CNC(=O)[C@@H]1Cc2ccccc2CN1C(=O)c1cc(Cl)c(O)cc1O	> 10	9.43	–
CC(C)NC(=O)[C@H]1Cc2ccccc2CN1C(=O)c1cc(Cl)c(O)cc1O	3.08	2.49	–
O=C([C@H]1Cc2ccccc2CN1C(=O)c1cc(Cl)c(O)cc1O)N1CCCC1	3.97	1.94	–
O=C([C@H]1Cc2ccccc2CN1C(=O)c1cc(Cl)c(O)cc1O)N1CCCCC1	3.45	1.64	–
C=CCNC1=C2C[C@@H](C)C[C@H](OC)[C@H](O)[C@@H](C)/C=C(\C)[C@H](OC(N)=O)[C@@H](OC)/C=C\C=C(/C)C(=O)NC(=CC1=O)C2=O [TANESPIMYCIN]	0.2	0.52	–
O=C(NCCc1ccccc1)[C@H]1Cc2ccccc2CN1C(=O)c1cc(Cl)c(O)cc1O	4.75	2.65	–
O=C(Nc1ccccc1)[C@@H]1Cc2ccccc2CN1C(=O)c1cc(Cl)c(O)cc1O	> 10	> 10	–
COC1=C2C[C@@H](C)C[C@H](OC)[C@H](O)[C@@H](C)/C=C(\C)[C@H](OC(N)=O)[C@@H](OC)/C=C\C=C(/C)C(=O)NC(=CC1=O)C2=O [GELDANAMYCIN]	0.06	0.03	–
CNC(=O)[C@H]1Cc2ccccc2CN1C(=O)c1cc(Cl)c(O)cc1O	7.62	9.42	–
O=C([C@@H]1Cc2ccccc2CN1C(=O)c1cc(Cl)c(O)cc1O)N1CCCC1	9.76	7.88	–
O=C(NC1CCCC1)[C@@H]1Cc2ccccc2CN1C(=O)c1cc(Cl)c(O)cc1O	> 10	> 10	–
O=C(NCc1ccccc1)[C@H]1Cc2ccccc2CN1C(=O)c1cc(Cl)c(O)cc1O	1.74	0.98	inhibition [3]: Dose-dependent effect; Activity [4]: Dose-dependent effect; inhibition [5]: Dose-dependent effect; Activity [6]: Active; inhibition [7]: Dose-dependent effect; inhibition [8]: Dose-dependent effect; inhibition [9]: Dose-dependent effect
O=C(NCCc1ccccc1)[C@@H]1Cc2ccccc2CN1C(=O)c1cc(Cl)c(O)cc1O	> 10	9.05	–
CCN(CC)C(=O)[C@@H]1Cc2ccccc2CN1C(=O)c1cc(Cl)c(O)cc1O	7.8	6.2	–
O=C(NC1CCCCC1)[C@@H]1Cc2ccccc2CN1C(=O)c1cc(Cl)c(O)cc1O	5.42	7.3	–
O=C(NCc1ccccc1)[C@@H]1Cc2ccccc2CN1C(=O)c1cc(Cl)c(O)cc1O	4.58	4.05	–
O=C(Nc1ccccc1)[C@H]1Cc2ccccc2CN1C(=O)c1cc(Cl)c(O)cc1O	2.69	1.9	–
